Non-standard residues stand in square brackets, D forms with d. Residues, ends and D or L forms follow the SMILES beside them. No end group written: not given here. *: point of attachment. NH(2-adamantyl) = C1C2CC3CC1CC(C2)C3N*; 2Nal = N[C@@H](Cc1ccc2ccccc2c1)C(=O)O; Sta = CC(C)C[C@H](N)[C@@H](O)CC(=O)O; NEtPhe = CCN[C@@H](Cc1ccccc1)C(=O)O; Isovaleryl = CC(C)CC(=O)*
Columns and labels:
human renin = molecular target: T1, human renin (Homo sapiens, UniProt P00797); experiment: Inhibition of Human Renin; type: biochemical; details: angiotensin I formed by radioimmunoassay; considered active if inhibition was greater than 20%
T1 construct: tissue World Health Organization International Laboratory for Biological Standards (National Institute for Biological Standards and Control, London, England); host or cells: human kidney
T1 sequence (P00797 67-406): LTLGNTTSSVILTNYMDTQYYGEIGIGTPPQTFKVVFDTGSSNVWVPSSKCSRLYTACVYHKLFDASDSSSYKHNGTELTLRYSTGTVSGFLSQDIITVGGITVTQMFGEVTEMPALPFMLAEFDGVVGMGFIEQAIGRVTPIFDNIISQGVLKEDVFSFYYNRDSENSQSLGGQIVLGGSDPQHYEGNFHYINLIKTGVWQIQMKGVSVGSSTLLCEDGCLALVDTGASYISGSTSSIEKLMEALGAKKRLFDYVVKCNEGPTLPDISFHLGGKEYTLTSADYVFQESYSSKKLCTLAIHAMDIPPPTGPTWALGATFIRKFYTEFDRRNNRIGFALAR
Protocol: The renin inhibition activity of the compounds of this invention illustrated in the examples was tested by the following method.
International reference standard human renin, isolated from kidneys, was obtained from the World Health Organization International Laboratory for Biological Standards (National Institute for Biological Standards and Control, London, England). Renin activity is defined in "Goldblatt units" (GU), the quantity that, when injected directly into the blood stream of an unanesthetized dog, raises the direct mean femoral artery blood pressure by 30 mm Hg in about two minutes. E. Haas, L. Lewis, P. Scipione, and T. J. Koshy, Hypertension, 1, 112-117 (1979). Human angiotensinogen was used as an unisolated component of human blood plasma. The enzyme inhibition assay, see K. Poulsen, J. Burton, and E. Haber, Biochemistry, 12, 3877-3882 (1973), involved a two-hour incubation at 37° C. of the following final concentrations of reagents (0.25 ml total volume): 0.1 mGU/ml human renin; 0.05 ml human plasma; 6 mM disodium EDTA; 2.4 mM phenylmethylsulfonyl fluoride and 1.5 mM 8-hydroxyquinoline (angiotensinase inhibitors); 0.4 mg/ml bovine serum albumin; and 0.024 neomycin sulfate in 100 mM Tris-acetate buffer (pH 7.5). The enzymatic reaction was terminated by boiling the mixture for ten minutes. The quantity of angiotensin I formed was determined by radioimmunoassay, using the general method used in the angiotensin I radioimmunoassay kit of New England Nuclear.

[1] = system: renal-ligated hypertensive rat; experiment: Renal-ligated Hypertensive Rat Assay; type: in vivo; details: renal-ligated rats
Protocol: Male Sprague Dawley rats aged 11 to 15 weeks old were used in this test. […] Test compounds were administered intra-arterially at a dose of 10 mg per kg of body weight, and blood pressure changes were monitored directly at 5, 10, and 15 minutes after injection.

Opiate receptor = experiment: Opiate Receptor Binding; details: rat brain membrane homogenates, tritium-labeled naloxone
Protocol: Opiate receptor binding of the compounds of this invention illustrated in the examples was tested by the following method.
A 2 ml portion of the homogenate is incubated at 25° with the test compound (10 mcM) and tritium-labeled naloxone (1.0 nM). After sixty minutes, samples were rapidly cooled on ice, collected over glass-fiber filters, washed with cold buffer, and solubilized by incubation with 1.0 ml of NCS tissue solubilizer. Samples were then prepared for counting in a liquid scintillation counter. Specific binding was calculated, with results expressed as percent inhibition at the test dose.

[2] = system: sodium depleted Rhesus monkeys; experiment: Rhesus Monkey Blood Pressure Test; type: in vivo
Protocol: Rhesus monkeys were sodium depleted by means of a fruit diet in combination with intramuscular furosemide injections (0.5 mg per kg of body weight) given twice daily for four days. This procedure causes blood pressure to become dependent on plasma renin activity. J. Burton, R. J. Cody, Jr., A. J. Herd, and E. Haber, Proc. Natl. Acad. Sci. U. S. A., 77, 5476-5479 (1980). On the fifth day the animals were anesthetized with ketamine (100 mg administered intravenously). The femoral artery was cannulated for blood pressure measurement and a percutaneous venous cannula was inserted for test compound administration. The animals were allowed to recover from anesthesia and were restrained in a transparent plastic chair. […]

Male Charles River mice = experiment: Hot-plate Assay; type: in vivo, mouse; details: subcutaneous, dose active if 50% of the animals showed analgesia
Protocol: (§1) The in vivo analgesic activity of the compounds of this invention illustrated in the examples was tested using the following hot-plate and writhing assays. Tyrosyl-N-(phenylpropyl)-D-alaninamide, a known analog of enkephalin, is active in these assays.
Male Charles River mice (COBS CD-1(ICR)BR) weighing 20 to 30 grams were used in this assay. Two groups of fourteen mice were placed individually in a restraining cylinder placed on a hot plate kept at 55° (±0.5°). The reaction time for each mouse to lick a foot or jump was measured three times at 20 minute intervals. Mice not responding within fifteen seconds were discarded. Twenty minutes after the last reaction experiment ten mice were given a dose of the test compound and ten were given 0.9% saline (each solution containing approximately 0.09 ml of a 1:1 mixture by volume of propylene glycol and polysorbate 80) subcutaneously. The response times of the animals were measured as before at 30, 60, 90, and 120 minute intervals after this injection. Mice not responding within 30 seconds were removed from the hot plate and given a response time of 30 seconds. […] The ED50 of each active test compound was then calculated. See N. B. Eddy, D. Leimbach, J. Pharmacol. and Exp. Therap., 107, 385-393 (1953).

[3] = system: Male Charles River albino mice; experiment: PBQ-Writhing Assay; type: in vivo, mouse; details: analgesia if writhes equal to or less than one-half the control median
Protocol: as §1
Male Charles River albino mice (CD-1(ICR)BR) weighing 20 to 30 grams were used in this assay. Thirty minutes after subcutaneous or intragastric administration (0.1 ml per 10 g of body weight) or fifteen minutes after intracerebroventricular administration (5 mcl total volume), a 0.025% solution of phenylbenzoquinone (PBQ) was injected intraperitoneally (0.1 ml per 10 g of body weight). Five minutes later each mouse was placed in a glass beaker and the number of writhes occurring in the next ten minutes was counted. (A writhe consists of dorsoflexion of the back, extension of the hindlimbs, and strong contraction of the abdominal musculature.) The test compound was considered to have produced analgesia in a mouse if the number of writhes elicited by PBQ was equal to or less than one-half the median number of writhes recorded for the saline-treated control group of mice that day. Results were expressed as the number of mice out of a possible ten in which the test compound produced analgesia. […]

CC(C)CC(=O)N[C@H](C(=O)N[C@H](C(=O)N[C@@H](CC(C)C)[C@@H](O)CC(=O)N[C@@H](C)C(=O)N[C@@H](CC(C)C)[C@@H](O)CC(=O)O)C(C)C)C(C)C [Pepstatin] (Isovaleryl-VV[Sta]A[Sta]-OH)
renin inhibition activity (human renin): active | plasma renin activity [1]: significantly reduced | mean arterial blood pressure ([1]; intra-arterial administration, significance P≤0.05): significantly reduced

CSCC[C@@H](NC(=O)[C@@H](N)Cc1ccc2ccccc2c1)C(=O)NCC(=O)N[C@@H](Cc1ccccc1)C(=O)NC1C2CC3CC(C2)CC1C3.Cl (stereo partly drawn) [Example 29, 3-(2-naphthalenyl)-L-alanyl-D-methionylglycyl-N-(2-adamantyl)-L-phenylalaninamide hydrochloride] (H-[2Nal][dM]GF-{NH(2-adamantyl)})
renin inhibition activity (human renin): possess renin inhibition activity | opiate receptor binding relative to prior art compounds of U.S. Pat. No. 4,273,704 (Opiate receptor): significantly lower opiate receptor binding

PHPFHFFVYK [RIP, prolylhistidylprolylphenylalanylhistidylphenylalanylphenylalanylvalyltyros yllysine]
mean blood pressure ([2]; 1.0 mg per kg): significantly lowered

C[C@@H](NC(=O)[C@@H](N)Cc1ccc(O)cc1)C(=O)NCCCc1ccccc1 [Tyrosyl-N-(phenylpropyl)-D-alaninamide]
analgesic activity, hot-plate (Male Charles River mice): active | analgesic activity, PBQ writhing [3]: active

CCN[C@@H](Cc1ccccc1)C(=O)N[C@H](CCSC)C(=O)NCC(=O)N[C@@H](Cc1ccccc1)C(=O)NC1C2CC3CC(C2)CC1C3.Cl (stereo partly drawn) [Example 15, N^α -ethyl-L-phenylalanyl-D-methionylglycyl-N-(2-adamantyl)-L-phenylalaninamide hydrochloride] (H-[NEtPhe][dM]GF-{NH(2-adamantyl)})
renin inhibition activity (human renin): possess renin inhibition activity | opiate receptor binding relative to prior art compounds of U.S. Pat. No. 4,273,704 (Opiate receptor): significantly lower opiate receptor binding

C[C@H](CS)C(=O)N1CCC[C@H]1C(=O)O [captopril]
mean blood pressure ([2]; 0.1 mg per kg): significantly lowered

Reference: US4510085A, “Antihypertensive tetrapeptide amides” (G.D. Searle & Co., priority 1984, dated 1985)
